For assay [1], the target named is PDE4 enzyme. In words: Inhibition of Phosphodiesterase Enzymes (PDE4), [3H]cAMP hydrolysis assay. Type of assay: biochemical. The settings on record: PDE4 inhibition, 1 μM cAMP, 34° C., 20 minutes. As to the method: Inhibition of Phosphodiesterase Enzymes (PDE4)
In this assay, PDE4 enzyme converts [^3H] cAMP to the corresponding [^3H] 5′-AMP in proportion to the amount of PDE4 present. The [^3H] 5′-AMP then was quantitatively converted to free [^3H] adenosine and phosphate by the action of snake venom 5′-nucleotidase.
The assay was performed with modification of the method of Thompson and Appleman (Biochemistry; 1971; 10; 311-316) and Schwartz and Passoneau (Proc. Natl. Acad. Sci. U.S.A. 1974; 71; 3844-3848), both references incorporated herein by reference in their entirety, at 34° C. In a 200 ul total reaction mixture, the reaction mixture contained 12.5 mM of Tris, 5 mM MgCl2, 1 μM cAMP (cold) and ^3H cAMP (0.1 uCi), (Amersham). […] Drug samples were then added in the reaction mixture (25 μt/tube). The assay was initiated by addition of enzyme mix (75 μl) and the mixture was incubated for 20 minutes at 34° C. The reaction was stopped by boiling the tubes for 2 mins at 100° C. in a water bath. After cooling on ice for 5 minutes and addition of 50 ug/reaction of 5′-nucleotidase snake venom from Crotalus atrox incubation was carried out again for 20 min. at 34° C. The unreacted substrate was separated from (^3H) Adenosine by addition of Dowex AG 1-X8 (Biorad Lab), (400 ul) which was prequilibrated (1:1:1) in water and ethanol. Reaction mixture was then thoroughly mixed, placed on ice for 15 minutes, vortexed and centrifuged at 14,000 r.p.m. for 2 mins. After centrifugation, a sample of the supernatant was taken and added in 24 well optiplates containing Scintillant (1 ml) and mixed well. The samples in the plates were then determined for radioactivity in a Top Counter and the PDE4 activity was estimated. PDE4 enzyme was present in quantities that yield <30% total hydrolysis of substrate (linear assay conditions).
Results were expressed as percent inhibition (IC50) in nM concentrations. The IC50 values were determined from the concentration curves by nonlinear regression analysis.

Assay [2] concerns PDE4. The experiment in a line: EC50 of the PDE4 results table (method not given).

Structures can show the parent of a compound that is named as a salt. Where two headings read alike, the source gives them in different places.

As for `CN(C)S(=O)(=O)Nc1ccc2oc3c(OC(F)F)ccc(C(=O)Nc4c(Cl)cncc4Cl)c3c2c1` [Example 33, N-(3,5-dichloropyrid-4-yl)-4-difluoromethoxy-8-N,N-dimethylaminosulfonamido-dibenzo[b,d]furan-1-carboxamide], half-maximal inhibition in assay [1] (IC50) was put at 12.1 nM. For the compound `COc1ccc(C(=O)Nc2c(Cl)cncc2Cl)c2c1oc1ccc(NS(=O)(=O)N(C)C)cc12` [Example 02, N-(3,5-dichloropyrid-4-yl)-4-methoxy-8-(N,N-dimethylsulphonamido)-dibenzo[b,d]furan-1-carboxamide], the concentration for a half-maximal effect (EC50) in assay [2] amounted to 2.07 nM. This compound also registered an IC50 in assay [1] of 1.03 nM. In assay [2], `CCOC(=O)C(=O)Nc1ccc2oc3c(OC)ccc(C(=O)Nc4c(Cl)cncc4Cl)c3c2c1` [Example 08, N-(3,5-dichloropyrid-4-yl)-4-methoxy-8-ethoxycarbonylcarboxamido-dibenzo[b,d]furan-1-carboxamide] returned a concentration giving a half-maximal response (EC50) of 110 nM. The compound also yielded an IC50 in assay [1] of 4.68 nM. In the case of `COc1ccc(C(=O)Nc2c(Cl)cncc2Cl)c2c1oc1ccc(NC(=O)NC3CCCC3)cc12` [Example 21, N-(3,5-dichloropyrid-4-yl)-4-methoxy-8-cyclopentylaminocarboxamido-dibenzo[b,d]furan-1-carboxamide], in assay [2], the EC50 was 23.8 nM. Further, the IC50 in assay [1] turned out to be 1.19 nM. In assay [2], `O=C(O)C(=O)Nc1ccc2oc3c(OC(F)F)ccc(C(=O)Nc4c(Cl)cncc4Cl)c3c2c1` [Example 38, N-(3,5-dichloropyrid-4-yl)-4-difluoromethoxy-8-hydroxycarbonylcarboxamido-dibenzo[b,d]furan-1-carboxamide] came in with an EC50 of 26.9 nM. The same compound returned a half-inhibitory concentration (IC50) in assay [1] of 1.41 nM. With `COc1ccc(C(=O)Nc2c(Cl)cncc2Cl)c2c1oc1ccc(NC(=O)C(=O)O)cc12` [Example 10, N-(3,5-dichloropyrid-4-yl)-4-methoxy-8-hydroxycarbonylcarboxamido-dibenzo[b,d]furan-1-carboxamide sodium salt], in assay [2] (sodium salt), the EC50 stood at 38.2 nM. The half-maximal inhibitory concentration (IC50) in assay [1] (sodium salt) was found to be 1.85 nM. `CCNC(=O)Nc1ccc2oc3c(OC)ccc(C(=O)Nc4c(Cl)cncc4Cl)c3c2c1` [Example 28, N-(3,5-dichloropyrid-4-yl)-4-methoxy-8-ethylamino carboxamido-dibenzo[b,d]furan-1-carboxamide] returned a concentration giving a half-maximal response (EC50) in assay [2] of 6.33 nM. In assay [1], this compound yielded an IC50 of 1.4 nM. In assay [2], `COc1ccc(C(=O)Nc2c(Cl)c[n+]([O-])cc2Cl)c2c1oc1ccc(NS(C)(=O)=O)cc12` [Example 48, N-(3,5-dichloropyrid-4-yl)-4-methoxy-8-methanesulfonamido-dibenzo[b,d]furan-1-carboxamide-N-oxide] came in with an EC50 of 11.9 nM. Besides, in assay [1], the IC50 came out at 1.67 nM.

Consider `CS(=O)(=O)Nc1ccc2oc3c(OC(F)F)ccc(C(=O)Nc4c(Cl)cncc4Cl)c3c2c1` [Example 31, N-(3,5-dichloropyrid-4-yl)-4-difluoromethoxy-8-methanesulfonamido-dibenzo[b,d]furan-1-carboxamide sodium salt], for which the EC50 in assay [2] (sodium salt) stood at 3.46 nM. For the same compound, the IC50 in assay [1] (sodium salt) turned out to be 1.43 nM. As for `CS(=O)(=O)Nc1ccc2oc3c(OC(F)F)ccc(C(=O)Nc4c(Cl)cncc4Cl)c3c2c1` [Example 30, N-(3,5-dichloropyrid-4-yl)-4-difluoromethoxy-8-methanesulfonamido-dibenzo[b,d]furan-1-carboxamide], the EC50 in assay [2] was found to be 3.59 nM. For the same compound, inhibition in assay [1] was half-maximal at 1.63 nM (IC50). For the compound `CNC(=O)Nc1ccc2oc3c(OC)ccc(C(=O)Nc4c(Cl)cncc4Cl)c3c2c1` [Example 29, N-(3,5-dichloropyrid-4-yl)-4-methoxy-8-methylamino carboxamido-dibenzo[b,d]furan-1-carboxamide], the EC50 in assay [2] worked out at 19.3 nM. For the same compound, the midpoint of inhibition in assay [1], the IC50, lay at 2.14 nM. `COc1ccc(C(=O)Nc2c(Cl)cncc2Cl)c2c3cc(NC(C)=O)ccc3n(C)c12` [Example 54, N-(3,5-dichloropyrid-4-yl)-1-methoxy-9-methyl-6-acetamido-9H-4-carbazolecarboxamide] yielded an IC50 in assay [1] of 237 nM.

Turning to `O=C(Nc1c(Cl)cncc1Cl)c1ccc(OC(F)F)c2oc3ccc(NC(=O)C4CC4)cc3c12` [Example 36, N-(3,5-dichloropyrid-4-yl)-4-difluoromethoxy-8-cyclopropylcarboxamido-dibenzo[b,d]furan-1-carboxamide], in assay [2], the EC50 is 8.44 nM. In assay [1], the IC50 stood at 4.64 nM. In the same order, the values of `CCCCCCNC(=O)Nc1ccc2oc3c(OC)ccc(C(=O)Nc4c(Cl)cncc4Cl)c3c2c1` [Example 27, N-(3,5-dichloropyrid-4-yl)-4-methoxy-8-n-hexylamino carboxamido-dibenzo[b,d]furan-1-carboxamide] are 4.16 nM and 3.4 nM. `COc1ccc(C(=O)Nc2c(Cl)cncc2Cl)c2c1oc1ccc(NC(=O)NCC(=O)O)cc12` [Example 51, N-(3,5-dichloropyrid-4-yl)-4-methoxy-8-(2-hydroxy-2-oxo-ethylaminocarbonylamino)-dibenzo[b,d]furan-1-carboxamide] came in with a concentration giving a half-maximal response (EC50) in assay [2] of 122 nM. The midpoint of inhibition in assay [1], the IC50, lay at 1.98 nM. In the same order, the values of `COc1ccc(C(=O)Nc2c(Cl)cncc2Cl)c2c1oc1ccc(NC(=O)Oc3ccccc3)cc12` [Example 17, N-(3,5-dichloropyrid-4-yl)-4-methoxy-8-phenoxycarboxamido-dibenzo[b,d]furan-1-carboxamide] are 104 nM and 9.09 nM. Regarding `COc1ccc(C(=O)Nc2c(Cl)cncc2Cl)c2c1oc1ccc(NC(=O)OCC(C)C)cc12` [Example 16, N-(3,5-dichloropyrid-4-yl)-4-methoxy-8-isobutyloxycarboxamido-dibenzo[b,d]furan-1-carboxamide], half-maximal inhibition in assay [1] (IC50) was put at 63.6 nM. For `CCS(=O)(=O)Nc1ccc2oc3c(OC(F)F)ccc(C(=O)Nc4c(Cl)cncc4Cl)c3c2c1` [Example 32, N-(3,5-dichloropyrid-4-yl)-4-difluoromethoxy-8-ethanesulfonamido-dibenzo[b,d]furan-1-carboxamide], half-maximal inhibition in assay [1] (IC50) required 14.1 nM. Compound `COc1ccc(C(=O)Nc2c(Cl)cncc2Cl)c2c1oc1ccc(NC(=O)C3CC3)cc12` [Example 12, N-(3,5-dichloropyrid-4-yl)-4-methoxy-8-(cyclopropylcarbonylamino)-dibenzo[b,d]furan-1-carboxamide] displayed a concentration for a half-maximal effect (EC50) in assay [2] of 16.2 nM. The compound further registered a concentration for half-maximal inhibition (IC50) in assay [1] of 0.557 nM.

Compound `COc1ccc(C(=O)Nc2c(Cl)cncc2Cl)c2c1oc1ccc(NCC(=O)O)cc12` [Example 53, N-(3,5-dichloropyrid-4-yl)-4-methoxy-8-(2-hydroxy-2-oxo-ethylamino)-dibenzo[b,d]furan-1-carboxamide] showed a half-maximal effective concentration (EC50) in assay [2] of 71.5 nM. The midpoint of inhibition in assay [1], the IC50, lay at 1.05 nM.

`CCS(=O)(=O)Nc1ccc2oc3c(OC)ccc(C(=O)Nc4c(Cl)cncc4Cl)c3c2c1` [Example 03, N-(3,5-dichloropyrid-4-yl)-4-methoxy-8-(ethanesulphonamido)-dibenzo[b,d]furan-1-carboxamide] registered an EC50 in assay [2] of 7.39 nM. This compound gave an IC50 in assay [1] of 0.762 nM. Take `COc1ccc(C(=O)Nc2c(Cl)cncc2Cl)c2c1oc1ccc(NC(=O)N3CCN(C)CC3)cc12` [Example 23, N-(3,5-dichloropyrid-4-yl)-4-methoxy-8-(N-methylpiperazin-4-ylcarboxamido)-dibenzo[b,d]furan-1-carboxamide hydrochloride]: the EC50 in assay [2] (hydrochloride) amounted to 4.14 nM. In assay [1] (hydrochloride), the IC50 was found to be 3.78 nM. In the case of `O=C(O)C(=O)Nc1ccc2oc3c(OC(F)F)ccc(C(=O)Nc4c(Cl)cncc4Cl)c3c2c1` [Example 39, N-(3,5-dichloropyrid-4-yl)-4-difluoromethoxy-8-hydroxycarbonylcarboxamido-dibenzo[b,d]furan-1-carboxamide disodium salt], the EC50 in assay [2] (disodium salt) worked out at 9.19 nM. In assay [1] (disodium salt), the IC50 came out at 0.598 nM.

`COc1ccc(C(=O)Nc2c(Cl)cncc2Cl)c2c1oc1ccc(NC(=O)NC(C)C)cc12` [Example 26, N-(3,5-dichloropyrid-4-yl)-4-methoxy-8-isopropylamino carboxamido-dibenzo[b,d]furan-1-carboxamide] returned an IC50 in assay [1] of 15.6 nM. In turn, `COc1ccc(C(=O)Nc2c(Cl)cncc2Cl)c2c1oc1ccc(NC(=O)C(=O)O)cc12` [Example 09, N-(3,5-dichloropyrid-4-yl)-4-methoxy-8-hydroxycarbonylcarboxamido-dibenzo[b,d]furan-1-carboxamide] came in with an EC50 in assay [2] of 138 nM. This compound came in with an IC50 in assay [1] of 1.03 nM.

In assay [1], `COc1ccc(C(=O)Nc2c(Cl)cncc2Cl)c2c1oc1ccc(N(C(=O)C3CC3)C(=O)C3CC3)cc12` [Example 13, N-(3,5-dichloropyrid-4-yl)-4-methoxy-8-(N,N-dicyclopropylcarbonylamino)-dibenzo[b,d]furan-1-carboxamide] yielded an IC50 of 74 nM.

By IC50 is commonly meant the point on the concentration scale where inhibition reaches its midpoint. What is called EC50 is the concentration needed to bring the measured effect to its halfway point.

The record behind these values is US7393846B2, “Heterocyclic compounds useful for the treatment of inflammatory and allergic disorders” (Glenmark Pharmaceuticals, S.A., priority 2003, dated 2008).
